Literature values as cited in paper PMC6311893, “Computational prediction of plasma protein binding of cyclic peptides from small molecule experimental data using sparse modeling techniques” (BMC Bioinformatics, 2018).

system: plasma protein; settings: fraction bound to plasma protein; small molecule dataset, sheet 1-SM (Set Dte = test, Dtr = training); ref Ingle et al.; cited from earlier work

First: CCn1nc(C(=O)O)c(=O)c2cc3c(cc21)OCO3 [cinoxacin]
Second: C=C(c1ccc(C(=O)O)cc1)c1cc2c(cc1C)C(C)(C)CCC2(C)C [Bexarotene]
The “PPB (fb)” value of the first is lower: 0.64 for the first, 0.99 for the second.

Compared with `CC(C)(Oc1ccc(CCNC(=O)c2ccc(Cl)cc2)cc1)C(=O)O` [bezafibrate], `COc1ccc(NS(=O)(=O)c2ccc(N)cc2)nn1` [sulfamethoxypyridazine] is lower in “PPB (fb)” value: 0.95 for the first, 0.75 for the second.

Compared with `Nc1c(Br)cc(Br)cc1CN[C@H]1CC[C@H](O)CC1` [ambroxol], `CC(=O)c1ccc(S(=O)(=O)NC(=O)NC2CCCCC2)cc1` [acetohexamide] is higher in “PPB (fb)” value: 0.9 for the first, 0.96 for the second.

First: CCOC(=O)[C@H](CCc1ccccc1)N[C@H]1CCCN2CCC[C@@H](C(=O)O)N2C1=O [cilazapril]
Second: O=C(OCCN1CCCCCC1)C(c1ccsc1)C1CCCCC1 (centres unmarked) [Cetiedil]
The “PPB (fb)” value of the first is lower: 0.25 for the first, 0.74 for the second.

First: CCN(CC)C(=S)SSC(=S)N(CC)CC [disulfiram]
Second: Cc1cnc(C(=O)O)c[n+]1[O-] [acipimox]
The “PPB (fb)” value of the first is higher: 0.5 for the first, 0.02 for the second.

In the case of `O=C(O)[C@H]1O[C@@H](Oc2cc3oc(-c4ccccc4)cc(=O)c3c(O)c2O)[C@H](O)[C@@H](O)[C@@H]1O` [baicalin], the “PPB (fb)” value is listed as 0.66.

same assay, conditions: fraction bound to plasma protein; small molecule dataset, sheet 1-SM, Set Dtr; ref Ingle et al.; cited from earlier work

Going from `Nc1nc(O)c2ncn(COC(CO)CO)c2n1` [Ganciclovir] to `N[C@@H](Cc1ccc(O)c(O)c1)C(=O)O` [Levodopa], the “PPB (fb)” value rises from 0.01 to 0.12.

First: CCCCC1=NC2(CCCC2)C(=O)N1Cc1ccc(-c2ccccc2-c2nnn[nH]2)cc1 [Irbesartan]
Second: CN1CCCC(n2nc(Cc3ccc(Cl)cc3)c3ccccc3c2=O)CC1 (centres unmarked) [Azelastine]
The “PPB (fb)” value of the first is higher: 0.9 for the first, 0.85 for the second.

Compared with `CN(C)CCC=C1c2ccccc2COc2ccccc21` [Doxepin], `O=c1n(CCCN2CCN(c3cccc(Cl)c3)CC2)nc2ccccn12` [trazodone] is higher in “PPB (fb)” value: 0.81 for the first, 0.92 for the second.

For `CC1=NS(=O)(=O)c2cc(Cl)ccc2N1` [Diazoxide], the “PPB (fb)” value is listed as 0.92.

same assay, conditions: fraction bound to plasma protein; small molecule dataset, sheet 1-SM; ref Ingle et al.; cited from earlier work

First: CCC1(c2ccccc2)C(=O)NCNC1=O [primidone]
Second: CN1C(=O)CC(c2ccccc2)C1=O (centres unmarked) [phensuximide]
The “PPB (fb)” value of the first is higher: 0.2 for the first, 0.07 for the second.

First: CC1(C)SC2C(NC(=O)c3ccccc3-c3ccccc3)C(=O)N2C1C(=O)O (centres unmarked) [penicillin16]
Second: O=C(OCC(O)CO)c1ccccc1Nc1ccnc2c(C(F)(F)F)cccc12 (centres unmarked) [floctafenine]
The “PPB (fb)” value of the first is higher: 0.91 for the first, 0.85 for the second.

`CC(CN(C)C)CN1c2ccccc2CCc2ccccc21` (centres unmarked) [Trimipramine] and `CC(C)(C)NC[C@H](O)COc1ccccc1C1CCCC1` [penbutolol] are the same in “PPB (fb)” value: 0.95 for the first, 0.95 for the second.

First: C#C[C@]1(O)CC[C@H]2[C@@H]3CCc4cc(OC)ccc4[C@H]3CC[C@@]21C [mestranol]
Second: O=C1Nc2ccc(Cl)cc2[C@@](C#CC2CC2)(C(F)(F)F)O1 [efavirenz]
The “PPB (fb)” value of the first is lower: 0.98 for the first, 0.99 for the second.

Going from `C[C@@H]1C[C@H]2[C@@H]3C[C@H](F)C4=CC(=O)C=C[C@]4(C)[C@H]3[C@@H](O)C[C@]2(C)[C@H]1C(=O)CO` [fluocortolone] to `CC[C@@H](C(N)=O)N1CCCC1=O` [levetiracetam], the “PPB (fb)” value falls from 0.9 to 0.05.

First: Nc1ccc(S(=O)(=O)Nc2nccs2)cc1 [sulfathiazole]
Second: O=C(O)c1cc(/N=N/c2ccc(S(=O)(=O)Nc3ccccn3)cc2)ccc1O [sulfasalazine]
The “PPB (fb)” value of the first is lower: 0.67 for the first, 0.97 for the second.

For `CC(=O)N[C@H]1[C@H]([C@H](O)[C@H](O)CO)OC(C(=O)O)=C[C@@H]1N=C(N)N` [Zanamivir], the “PPB (fb)” value is listed as 0.09.

same assay, conditions: plasma; cited from earlier work

Compared with Clevidipine, `O=C1CN=C(c2ccccn2)c2cc(Br)ccc2N1` [Bromazepam] is lower in “PPB (fb)” value: 1 for the first, 0.61 for the second.

First: Rifabutin
Second: C#CC(O)(/C=C/Cl)CC (centres unmarked) [ethchlorvynol]
The “PPB (fb)” value of the first is higher: 0.76 for the first, 0.6 for the second.

Going from Atovaquone to `CNC(C)C1CCC(N)C(OC2C(N)CC(N)C(OC3OCC(C)(O)C(NC)C3O)C2O)O1` (centres unmarked) [Gentamicin], the “PPB (fb)” value falls from 1 to 0.1.

For `CCC(=O)C(CC(C)N(C)C)(c1ccccc1)c1ccccc1` (centres unmarked) [Methadone], the “PPB (fb)” value is listed as 0.84.
